Literature values in patent US6455592B1, “Use of hydrophilic penetration agents in dermatological compositions for the treatment of onychomycoses, and corresponding compositions” (Novartis AG, priority 1991, dated 2002).
Where a name gives a salt, the structure may show the parent alone.

Conditions: oral treatment with 250 mg/day over 8 weeks

Question: Which “concentration of terbinafine-HCl in the nails” value does the source give for `CN(C/C=C/C#CC(C)(C)C)Cc1cccc2ccccc12` [terbinafine-HCl, Terbinafine hydrochloride] here?
Answer: 0.4±0.15 ng of terbinafine-HCl per mg of nail material
